# According to US5348941A, “Stabilizers for fibroblast growth factors” (Merck & Co., Inc., priority 1992, dated 1994):
# Assays:
# [1] = tested on: BALB/c 3T3 A31 fibroblasts; assay: Fibroblast mitogenic assay ([3H]-thymidine incorporation into DNA); format: cell-based; set-up: Bioactivity (mitogenic activity of aFGF in the presence of ligand): unit not given here; settings: for mitogenic activity of aFGF: absence of heparin; for Bioactivity (mitogenic activity of aFGF in the presence of ligand): complete absence of heparin, < = response did not plateau, * = cell death observed
# Procedure: Biological activity of the formulation of the instant invention is determined by a modification of the fibroblast mitogenic assay as described by Linemeyer et al. in European Patent Application, Publication No. 259,953. BALB/c 3T3 A31 fibroblasts (American Type Culture Collection) are plated at about 3×10^5 cells per 32 cm^2 wells in culture media containing about 10% heat-inactivated calf serum and incubated in about 7% CO2 (pH 7.35±0.05). The cells become fully quiescent by replacing the media with serum free media at about 6, about 24 hours and about 48 hours later. At about 53 hours after plating samples of the various formulations are added and about 0.12 μg of dexamethasone are added. At about 65 hours each well is supplemented with about 0.4 μCi of [methyl-^3 H]-thymidine (20 Ci/mmole, Dupont) and 0.6 μg of unlabeled thymidine (Sigma), and at 80 hours the cells are processed for determination of radiolabel incorporation into DNA. Each dose-response point is the average of at least quadruplicate determinations. Other cell types such vascular endothelial cells and corneal endothelial cells can be employed to determine in vitro mitogenicity. The procedures are described in detail by Thomas et al., Proc. Natl. Acad. Sci. USA 82:6409-6431 (1985).
# ^(d) Mitogenic activity of aFGF was measured in the presence of ligan
# indicated in the complete absence of heparin.
# *indicates cell death observed during assay.
# Biological activity of the formulation of the instant invention was determined by a modification of the fibroblast mitogenic assay as described by Linemeyer et al. in European Patent Application, Publication No. 259,953. BALB/c 3T3 A31 fibroblasts (American Type Culture Collection) were plated at 3×10^5 cells per 32 cm^2 well in culture media containing about 10% heat-inactivated calf serum and incubated in 7% CO2 (pH 7.35±0.05). The cells become fully quiescent by replacing the media with serum free media at 6, 24 hours and 48 hours later. At 53 hours after plating samples of the various formulations were added and 0.12 μg of dexamethasone was added, at 65 hours each well was supplemented with 0.4 μCi of [methyl-^3 H]-thymidine (20 Ci/mmole, Dupont) and 0.6 μg of unlabeled thymidine (Sigma), and at 80 hours the cells were processed for determination of radiolabel incorporation into DNA. Each dose-response point is the average of at least quadruplicate determinations. Other cell types such vascular endothelial cells and corneal endothelial cells can be employed to determine in vitro mitogenidty. The procedures are described in detail by Thomas et al., Proc. Natl. Acad. Sci. USA 82:6409-6431 (1985).
# acidic FGF (aFGF) = acidic FGF (aFGF) (Homo sapiens, UniProt P05230); assay: biochemical; settings: for stabilization of aFGF against heat-induced aggregation: 0.5X and 10X ligand, FIGS. 6-8; for Approx. Molar Ratio (ligand to aFGF at 50% inhibition of aggregation): Table 1
# Chain of acidic FGF (aFGF) (P05230 16-155 limits assumed): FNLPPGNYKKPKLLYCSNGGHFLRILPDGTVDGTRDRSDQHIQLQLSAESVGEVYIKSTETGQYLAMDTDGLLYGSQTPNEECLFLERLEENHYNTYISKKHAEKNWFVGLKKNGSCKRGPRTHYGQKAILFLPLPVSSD
# From the text: Stabilization of aFGF can be determined by several independent methods including turbidity measurements, spectroscopic techniques, maintenance of protein mass, mitogenic activity and copper catalyzed oxidation. Since acidic fibroblast growth factor is unstable at physiological temperatures (undergoing large structural changes, including aggregation, which results in a loss of mitogenic and wound healing activity), human aFGF stability can be monitored by evaluating the turbidity of the pharmaceutical composition by following the kinetics of temperature induced aggregation of unfolded protein.
# The kinetics of protein aggregation (stabilization) are monitored by the degree of light scattering at about OD350 nm using a Perkin Elmer Lambda 6 UV-visible spectrophotometer equipped with a six-cuvette holder. Temperature is controlled by circulating a water/ethylene glycol solution through the cell holder. About 0.9 ml of a PBS solution (6 mM sodium phosphate, 120 mM NaCl, pH 7.2) was placed into a cuvette and incubated at the appropriate temperature within the spectrophotometer. Once equilibrated, 100 μl of a 1 mg/ml aFGF solution containing the appropriate amount of ligand (stabilizer) is added to the cuvette and mixed manually by inversion. The change in optical density at 350 nm over time is continuously monitored. A dead time of 30s was present due to the mixing of the six samples in each experiment.
# To examine the interactions between aFGF and heparin, a spectrophotometric turbidity assay was developed. This technique monitors the structural stability of aFGF by following the kinetics of temperature induced aggregation of unfolded protein by measurement of the degree of light scattering (turbidity) at 350 nm. The kinetics of protein aggregation were monitored by the degree of light scattering at 350 nm using a Perkin Elmer Lambda 6 UV-visible spectrophotometer equipped with a six-cuvette holder. Temperature was controlled by circulating a water/ethylene glycol solution through the cell holder. A PBS solution, 0.9 ml, (6 mM phosphate, 120 mM NaCl pH 7.2) was placed into a cuvette and incubated at the appropriate temperature within the spectrophotometer. Once equilibrated, 100 μl of a 1 mg/ml aFGF solution containing the appropriate amount of ligand was added to the cuvette and mixed manually by inversion. The change in optical density at 350 nm over time was continuously monitored. A dead time of 30s was present due to the mixing of the six samples in each experiment.
# Samples contained 100 μg/ml aFGF in a PBS buffer at pH 7.2 with the indicated ratio of heparin to aFGF (wt:wt).
# Samples contained 100 μg/ml protein in a PBS buffer, pH 7.2 with (a) no heparin, (b) 1.5 μg/ml, (c) 3 μg/ml, (d) 5 μg/ml, (e) 10 μg/ml and (f) 50 μg/ml heparin. Only representative data points are shown for clarity. […] Using the initial linear portion of the slope of turbidity vs. time plots as a measure of the rate of aggregation, the effect of polyanion concentration can be quantitatively characterized. The Y-axis represents the maximum rate of turbidity formation (ΔOD350 nm/min) normalized to sample (a) containing no heparin. The curve is drawn through data points for clarity only. The IC50 is the concentration of ligand at which the rate of aggregation is 50% of the control sample.
# [2] = 40° C., 100 μg/ml aFGF, PBS pH 7.2
Approx. Molar Ratio (ligand to aFGF at 50% inhibition of aggregation) (acidic FGF (aFGF); 40° C.),IC50: concentration of ligand at which the rate of heat-induced aggregation of aFGF is 50% of the sample without ligand (acidic FGF (aFGF); [2]) [µg/mL],"heparin concentration down to which no detectable aggregation of aFGF was observed (acidic FGF (aFGF); 40° C., 100 μg/ml aFGF (1:10 weight ratio of heparin to aFGF))",Compound,mitogenic activity of aFGF [1],Bioactivity (mitogenic activity of aFGF in the presence of ligand) [1],number of ligand molecules per aFGF (molar ratio) required for stabilization (acidic FGF (aFGF); 40° C.),"IC50 (acidic FGF (aFGF); 40° C., 100 μg/ml aFGF, PBS pH 7.2, read-out: IC50: concentration of ligand at which the rate of heat-induced aggregation of aFGF is 50% of the sample without ligand (converted)) [µM]",stabilization of aFGF against heat-induced aggregation (acidic FGF (aFGF); 40° C.),"aggregation of aFGF (acidic FGF (aFGF); 55° C., 25 minutes, 3-fold excess heparin by weight)"
–,–,–,"O=P(O)(O)O[C@H]1[C@H](OP(=O)(O)O)[C@@H](OP(=O)(O)O)[C@H](OP(=O)(O)O)[C@@H](OP(=O)(O)O)[C@H]1OP(=O)(O)O [Inositol hexaphosphate, inositol hexaphosphate]",did not show any appreciable mitogenic activity,< 0.6,–,–,–,–
1.2,3,–,O=P(O)(O)OP(=O)(O)OP(=O)(O)OP(=O)(O)O [Tetrapolyphosphate],did not show any appreciable mitogenic activity,< 0.25,only one or a few ligands per aFGF molecule,–,–,–
0.06,3,–,dextran sulfate,–,5.0,substantially below one,–,dramatically stabilize aFGF from heat-induced aggregation,–
0.03,2,approximately 10 μg/ml,heparin [reference compound],–,4.2,substantially below one,–,–,no aggregation observed after 25 minutes at 55 °C
0.10,3,–,"low molecular weight heparin [Low MW heparin, reference compound]",–,4.0,–,–,dramatically stabilize aFGF from heat-induced aggregation,–
–,–,–,sulfated β-cyclodextrin,–,3.7,–,–,–,–

Compound,Approx. Molar Ratio (ligand to aFGF at 50% inhibition of aggregation) (acidic FGF (aFGF); 40° C.),IC50: concentration of ligand at which the rate of heat-induced aggregation of aFGF is 50% of the sample without ligand (acidic FGF (aFGF); [2]) [µg/mL],"heparin concentration down to which no detectable aggregation of aFGF was observed (acidic FGF (aFGF); 40° C., 100 μg/ml aFGF (1:10 weight ratio of heparin to aFGF))",mitogenic activity of aFGF [1],Bioactivity (mitogenic activity of aFGF in the presence of ligand) [1],number of ligand molecules per aFGF (molar ratio) required for stabilization (acidic FGF (aFGF); 40° C.),"IC50 (acidic FGF (aFGF); 40° C., 100 μg/ml aFGF, PBS pH 7.2, read-out: IC50: concentration of ligand at which the rate of heat-induced aggregation of aFGF is 50% of the sample without ligand (converted)) [µM]",stabilization of aFGF against heat-induced aggregation (acidic FGF (aFGF); 40° C.),"aggregation of aFGF (acidic FGF (aFGF); 55° C., 25 minutes, 3-fold excess heparin by weight)"
"O=S(=O)(O)OC1C(OS(=O)(=O)O)C(OS(=O)(=O)O)C(OS(=O)(=O)O)C(OS(=O)(=O)O)C1OS(=O)(=O)O (stereo not shown) [Inositol hexasulfate, inositol hexasulfate]",0.6,–,–,–,2.3,only one or a few ligands per aFGF molecule,4.54,stabilize aFGF against heat-induced aggregation,–
